Target: T1, AsPC-1 HiBiT-KRASG12D (Homo sapiens, UniProt P01116, G12D)
T1 construct: insert the HiBiT tag onto the N-terminus of one or more of the endogenous KRAS alleles; endogenous in cells; host or cells: AsPC-1 (ATCC CRL-1682), CRISPR-Cas9 knock-in clone, one tagged allele
Assay: HiBiT degradation assay (G12D), AsPC-1 HiBiT-KRASG12D cells
Type: cell-based
Conditions: 24 hours treatment; for Dmax: ASPC1, AsPC-1 HiBiT-KRASG12D cells, maximum degradation observed; for DC50: AsPC-1 HiBiT-KRASG12D cells, HiBiT luminescence
Procedure, shortened: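 AsPC-1 cells carried a CRISPR knock-in of an N-terminal HiBiT tag on endogenous KRAS G12D. After 24 h compound treatment at 37 °C (triplicate), viability was read by alamar blue (4 h, fluorescence, normalized to DMSO). HiBiT-KRAS levels were then measured by Nano-Glo HiBiT lytic luminescence after 45 min at room temperature.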

T1 sequence (P01116 1-188 isoform P01116-2 G12D): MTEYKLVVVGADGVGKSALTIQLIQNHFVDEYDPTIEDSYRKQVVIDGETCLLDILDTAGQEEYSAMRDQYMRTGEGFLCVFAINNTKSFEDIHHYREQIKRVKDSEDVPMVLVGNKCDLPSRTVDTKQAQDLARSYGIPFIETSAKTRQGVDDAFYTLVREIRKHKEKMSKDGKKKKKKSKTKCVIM

Q: Which results are given for `C#Cc1c(F)ccc2cc(O)cc(-c3ncc4c(N5CC6CCC(C5)N6)nc(OCCN5CC[C@H]6CN(c7cc([C@H](C(=O)N8C[C@H](O)C[C@H]8C(=O)N[C@@H](C)c8ccc(-c9scnc9C)cc8)C(C)C)on7)C[C@H]6C5)nc4c3F)c12` [Compound 183, (2S,4R)-1-[(2R)-2-{3-[(3aR,7aR)-5-{2-[(4-{3,8-diazabicyclo[3.2.1]octan-3-yl}-7-(8-ethynyl-7-fluoro-3-hydroxynaphthalen-1-yl)-8-fluoropyrido[4,3-d]pyrimidin-2-yl)oxy]ethyl}-octahydro-1H-pyrrolo[3,4-c]pyridin-2-yl]-1,2-oxazol-5-yl}-3-methylbutanoyl]-4-hydroxy-N-[(1S)-1-[4-(4-methyl-1,3-thiazol-5-yl)phenyl]ethyl]pyrrolidine-2-carboxamide]?
A: Dmax: 80 to 100%; DC50: < 600 nM

Q: How did the Dmax turn out when `C#Cc1c(F)ccc2cc(O)cc(-c3ncc4c(N5CC6CCC(C5)N6)nc(OCCN5CCC(CCC6CN(c7cc([C@H](C(=O)N8C[C@H](O)C[C@H]8C(=O)N[C@@H](C)c8ccc(-c9scnc9C)cc8)C(C)C)on7)C6)CC5)nc4c3F)c12` [Compound 184] was run?
A: The Dmax was 80 to 100%.

Q: What about the DC50 of the same compound?
A: The DC50 was less than 600 nM.

Q: Which Dmax does the source give for `C#Cc1c(F)ccc2cc(O)cc(-c3ncc4c(N5CC6CCC(C5)N6)nc(OCCN5CCC(C6CN(c7cc([C@H](C(=O)N8C[C@H](O)C[C@H]8C(=O)N[C@@H](C)c8ccc(-c9scnc9C)cc8)C(C)C)on7)C6)CC5)nc4c3F)c12` [Compound 185] here?
A: Its Dmax is 80 to 100%.

Q: What about the DC50 of the same compound?
A: Its DC50 is less than 600 nM.

Q: What does the source list for `CCc1cccc2cc(O)cc(-c3ncc4c(N5CC6CCC(C5)N6)nc(OCCN5CCC(C(C)(C)N6CCN(c7cc([C@H](C(=O)N8C[C@H](O)C[C@H]8C(=O)N[C@@H](C)c8ccc(-c9scnc9C)cc8)C(C)C)on7)CC6)CC5)nc4c3F)c12` [Compound 186, (2S,4R)-1-[(2R)-2-(3-{4-[2-(1-{2-[(4-{3,8-diazabicyclo[3.2.1]octan-3-yl}-7-(8-ethyl-3-hydroxynaphthalen-1-yl)-8-fluoropyrido[4,3-d]pyrimidin-2-yl)oxy]ethyl}piperidin-4-yl)propan-2-yl]piperazin-1-yl}-1,2-oxazol-5-yl)-3-methylbutanoyl]-4-hydroxy-N-[(1S)-1-[4-(4-methyl-1,3-thiazol-5-yl)phenyl]ethyl] pyrrolidine-2-carboxamide]?
A: Dmax: 80 to 100%; DC50: < 600 nM

Q: Which Dmax does the source give for `CCc1cccc2cc(O)cc(-c3ncc4c(N5C[C@H]6CC[C@@H](C5)N6)nc(OCCN5CCC(C)(CN6CCN(c7cc([C@H](C(=O)N8C[C@H](O)C[C@H]8C(=O)N[C@@H](C)c8ccc(-c9scnc9C)cc8)C(C)C)on7)CC6)CC5)nc4c3F)c12` [Compound 187, (2S,4R)-1-((R)-2-(3-(4-((1-(2-((4-((1R,5S)-3,8-diazabicyclo[3.2.1]octan-3-yl)-7-(8-ethyl-3-hydroxynaphthalen-1-yl)-8-fluoropyrido[4,3-d]pyrimidin-2-yl)oxy)ethyl)-4-methylpiperidin-4-yl)methyl)piperazin-1-yl)isoxazol-5-yl)-3-methylbutanoyl)-4-hydroxy-N—((S)-1-(4-(4-methylthiazol-5-yl)phenyl)ethyl)pyrrolidine-2-carboxamide] here?
A: The Dmax was 80 to 100%.

Q: What about the DC50 of the same compound?
A: Its DC50 is less than 600 nM.

Q: How did the Dmax turn out when `CCc1cccc2cc(O)cc(-c3ncc4c(N5C[C@H]6CC[C@@H](C5)N6)nc(OCCN5CCC(C)(CN6CCN(c7cc([C@@H](C(=O)N8C[C@H](O)C[C@H]8C(=O)N[C@@H](C)c8ccc(-c9scnc9C)cc8)C(C)C)on7)CC6)CC5)nc4c3F)c12` [Compound 188, (2S,4R)-1-((S)-2-(3-(4-((1-(2-((4-((1R,5S)-3,8-diazabicyclo[3.2.1]octan-3-yl)-7-(8-ethyl-3-hydroxynaphthalen-1-yl)-8-fluoropyrido[4,3-d]pyrimidin-2-yl)oxy)ethyl)-4-methylpiperidin-4-yl)methyl)piperazin-1-yl)isoxazol-5-yl)-3-methylbutanoyl)-4-hydroxy-N—((S)-1-(4-(4-methylthiazol-5-yl)phenyl)ethyl)pyrrolidine-2-carboxamide] was run?
A: The Dmax was 20 to 60%.

Q: And the DC50?
A: The DC50 was 1000 to 3000 nM.

Q: For `CCc1cccc2cc(O)cc(-c3ncc4c(N5CC6CCC(C5)N6)nc(N5CC(CN6CCC(CC7CN(c8cc([C@@H](C(=O)N9C[C@H](O)C[C@H]9C(=O)N[C@@H](C)c9ccc(-c%10scnc%10C)cc9)C(C)C)on8)C7)CC6)C5)nc4c3F)c12` [Compound 189, (2S,4R)-1-[(2S)-2-(3-{3-[(1-{[1-(4-{3,8-diazabicyclo[3.2.1]octan-3-yl}-7-(8-ethyl-3-hydroxynaphthalen-1-yl)-8-fluoropyrido[4,3-d]pyrimidin-2-yl)azetidin-3-yl]methyl}piperidin-4-yl)methyl]azetidin-1-yl}-1,2-oxazol-5-yl)-3-methylbutanoyl]-4-hydroxy-N-[(1S)-1-[4-(4-methyl-1,3-thiazol-5-yl)phenyl]ethyl]pyrrolidine-2-carboxamide], which DC50 is on record?
A: Its DC50 is greater than 3000 nM.

Q: What does the source list for `C#Cc1c(F)ccc2cc(O)cc(-c3ncc4c(N5CC6CCC(C5)N6)nc(OCCN5CCC(CN6CCN(c7cc([C@H](C(=O)N8C[C@H](O)C[C@H]8C(=O)N[C@@H](C)c8ccc(-c9ccnn9C)cc8)C(C)C)on7)CC6)CC5)nc4c3F)c12` [Compound 190, (2S,4R)-1-[(2R)-2-(3-{4-[(1-{2-[(4-{3,8-diazabicyclo[3.2.1]octan-3-yl}-7-(8-ethynyl-7-fluoro-3-hydroxynaphthalen-1-yl)-8-fluoropyrido[4,3-d]pyrimidin-2-yl)oxy]ethyl}piperidin-4-yl)methyl]piperazin-1-yl}-1,2-oxazol-5-yl)-3-methylbutanoyl]-4-hydroxy-N-[(1S)-1-[4-(1-methyl-1H-pyrazol-5-yl)phenyl]ethyl] pyrrolidine-2-carboxamide]?
A: Dmax: 80 to 100%; DC50: < 600 nM

Q: For `CCc1cccc2cc(O)cc(-c3ncc4c(N5CC6CCC(C5)N6)nc(OCCN5CCC(CN6CCN(c7cc([C@H](C(=O)N8C[C@H](O)C[C@H]8C(=O)N[C@@H](C)c8ccc(-c9ccnn9C)cc8)C(C)C)on7)CC6)CC5)nc4c3F)c12` [Compound 191, (2S,4R)-1-[(2R)-2-(3-{4-[(1-{2-[(4-{3,8-diazabicyclo[3.2.1]octan-3-yl}-7-(8-ethyl-3-hydroxynaphthalen-1-yl)-8-fluoropyrido[4,3-d]pyrimidin-2-yl)oxy]ethyl}piperidin-4-yl)methyl]piperazin-1-yl}-1,2-oxazol-5-yl)-3-methylbutanoyl]-4-hydroxy-N-[(1S)-1-[4-(1-methyl-1H-pyrazol-5-yl)phenyl]ethyl]pyrrolidine-2-carboxamide], which Dmax is on record?
A: The Dmax was 80 to 100%.

Q: What about the DC50 of the same compound?
A: Its DC50 is less than 600 nM.

Q: For `CCc1cccc2cc(O)cc(-c3ncc4c(N5CC6CCC(C5)N6)nc(N5CCC(CN6CCC(CC7CN(c8cc([C@H](C(=O)N9C[C@H](O)C[C@H]9C(=O)N[C@@H](C)c9ccc(-c%10scnc%10C)cc9)C(C)C)on8)C7)CC6)CC5)nc4c3F)c12` [Compound 192, (2S,4R)-1-[(2R)-2-(3-{3-[(1-{[1-(4-{3,8-diazabicyclo[3.2.1]octan-3-yl}-7-(8-ethyl-3-hydroxynaphthalen-1-yl)-8-fluoropyrido[4,3-d]pyrimidin-2-yl)piperidin-4-yl]methyl}piperidin-4-yl)methyl]azetidin-1-yl}-1,2-oxazol-5-yl)-3-methylbutanoyl]-4-hydroxy-N-[(1S)-1-[4-(4-methyl-1,3-thiazol-5-yl)phenyl]ethyl]pyrrolidine-2-carboxamide], which DC50 is on record?
A: Its DC50 is greater than 3000 nM.
